Measured values reported in patent publication US9229013B2, “Vasoactive hormone-based stratification of patients suffering from diseases related to endothelial function/dysfunction” (B.R.A.H.M.S GMBH, priority 2009, dated 2016).
Marks after values point to notes of the source that are not given here.

Key:
[1] = test system: patients having suffered from ischemic or haemorrhagic stroke or TIA; assay: COSMOS study: survival (deaths), hazard ratio medication vs no medication, stratified by biomarker quintile; format: in vivo, human; conditions: for effect of administration at high (higher) levels of vasoactive hormones / effect of administration at low (lower) levels of vasoactive hormones: COSMOS study, summary of Table 2; for HR Medicament Marker-Quintile 5 / HR Medicament Marker-Quintile 1 / HR Medicament Marker-Quintile 2-4 / HR Medicament (overall patient group): COSMOS
Source text: (§1) Suitable threshold levels for the stratification of subjects into different groups (categories) have to be determined for each particular combination of vasoactive hormone or fragments thereof or precursors or fragments thereof, medication and disease. This can e.g. be done by grouping a reference population of patients according to their level of vasoactive hormone into certain quantiles, e.g. tertiles, quartiles, quintiles or even according to suitable percentiles. […] A HR around 1 (e.g. +/−0.1) indicates no elevated risk but also no benefit from medication for the particular group of patients. By comparison of the HR between certain quantiles of patients with each other and with the HR of the overall population of patients, it is possible to identify those quantiles of patients who have an elevated risk and those who benefit from medication and thereby stratify subjects according to the present invention.
FIGS. 9 to 13 illustrate the survival rate for patients suffering from ischemic stroke, hemorrhagic stroke or transient ischemic attack from the “Copeptin to guide disease severity and Management, Osmostatus and Stress” (“COSMOS”).
The study was set at the emergency and neurological and neurosurgical clinic of the University Hospital of Basel. All consecutive patients who are admitted to the emergency department with an ischemic or hemorrhagic stroke or transient ischemic attack (TIA) according to the World Health Organization criteria with symptom onset within the last 3 days were included into the study. Patients without an informed consent were excluded.
Step 5. In patients with ischemic stroke a telephone follow-up regarding morbidity and mortality (as assessed by the Barthel Index and Ranking Scale) will be obtained after 3 months. An unfavorable outcome will be defined as a Barthel index <85 or modified Ranking scale of 3 to 6. II) Post-Myocardial Infarction (MI) Patients (Leicester Acute Myocardial Infarction Peptide Study (“LAMP”)) Study Population:
(§2) Survival rates, i.e. the proportion of patients surviving at a given time after entry into the studies, are plotted in the appended figures over time for different combinations of a particular vasoactive hormone with a particular medication. The patients have been stratified into quintiles according to their respective hormone levels. […] For some cases, two or more quintiles have been pooled were appropriate. Hazard ratios (HR) have been calculated for various combinations of particular vasoactive hormones with particular medications. HR have also been calculated for particular quintiles and/or pooled quintiles and compared to overall HR for each combination.
Table 2 lists the results for the patients from the COSMOS study (patients having suffered from ischemic or haemorrhagic stroke or TIA).

[2] = test system: patients having suffered a myocardial infarction; assay: LAMP study (Outcome Death): hazard ratio medication vs no medication, stratified by biomarker quintile; format: in vivo, human; conditions: for HR Medicament in Marker-Quantile 1 / HR Medicament in Marker-Quantile 2-4 / HR Medicament in Marker-Quantile 5 / HR Medicament (overall patient group): LAMP, Outcome Death
Source text: Suitable threshold levels for the stratification of subjects into different groups (categories) have to be determined for each particular combination of vasoactive hormone or fragments thereof or precursors or fragments thereof, medication and disease. This can e.g. be done by grouping a reference population of patients according to their level of vasoactive hormone into certain quantiles, e.g. tertiles, quartiles, quintiles or even according to suitable percentiles. […] A HR around 1 (e.g. +/−0.1) indicates no elevated risk but also no benefit from medication for the particular group of patients.
(§3) FIGS. 14 to 21 illustrate the survival rate for patients suffering from myocardial infarction from the “Leicester Acute Myocardial Infarction Peptide Study” (“LAMP”). FIGS. 22 to 34 illustrate the rate of major cardiac events for patients suffering from acute myocardial infarction from “LAMP-Study”.
Acute myocardial infarction was subcategorized into ST-segment elevation myocardial infarction (STEMI) or non-ST-segment myocardial infarction (NSTEMI).
(§4) Blood samples were drawn on 1 occasion 3 to 5 days after the onset of chest pain. After 15 min bed rest, 20 ml blood was collected into tubes containing ethylendiaminetetraacetic acid (EDTA) and aprotinin. All plasma samples were stored at −70° C. until assayed in a blinded fashion in a single batch.
as §2

[3] = test system: patients having suffered a myocardial infarction; assay: LAMP study (Outcome MACE): hazard ratio medication vs no medication, stratified by biomarker quintile; format: in vivo, human
Source text: as §1, §3
The study involved 983 consecutive patients with acute myocardial infarction (AMI) admitted to the Coronary Care Unit of Leicester Royal Infirmary. […] Acute myocardial infarction was subcategorized into ST-segment elevation myocardial infarction (STEMI) or non-ST-segment myocardial infarction (NSTEMI).
as §4, with “batch. In a subgroup of 132 patients from the original 983-patient cohort, blood sampling was performed daily for 5 days from admission to discharge.” for “batch.”
as §2

[4] = test system: patients with chronic ischemic left ventricular dysfunction; conditions: patients exhibiting a higher pre-treatment plasma NT-proBNP and adrenomedullin (ADM); cited from earlier work
[5] = test system: patients with severe congestive heart failure in NYHA class IV; conditions: mortality after 6 months; patients stratified by peptide concentrations below and above median; cited from earlier work

CC(=O)Oc1ccccc1C(=O)O [Acetylsalicylic acid]
effect of administration at high (higher) levels of vasoactive hormones [1]: unfavourable effect
effect of administration at low (lower) levels of vasoactive hormones [1]: positive effect
HR Medicament Marker-Quintile 5 ([1]; CT-proAVP 23.5-499 pmol/L): 2.6
HR Medicament Marker-Quintile 1 ([1]; CT-proET-1 4.5-55.5 pmol/L): 0.5
HR Medicament Marker-Quintile 2-4 ([1]; CT-proET-1 55.5-93.1 pmol/L): 1.5
HR Medicament Marker-Quintile 5 ([1]; CT-proET-1 93.1-368 pmol/L): 2.5
HR Medicament Marker-Quintile 1 ([1]; MR-proADM 0.05-0.47 nmol/L): 0.6
HR Medicament Marker-Quintile 2-4 ([1]; MR-proADM 0.47-0.91 nmol/L): 0.7
HR Medicament Marker-Quintile 5 ([1]; MR-proADM 0.91-5.49 nmol/L): 2.4
HR Medicament Marker-Quintile 1 ([1]; MR-proANP 20.8-71.6 pmol/L): <0.1
HR Medicament Marker-Quintile 2-4 ([1]; MR-proANP 71.6-240 pmol/L): 1.7
HR Medicament Marker-Quintile 5 ([1]; MR-proANP 240-1560 pmol/L): 2.3
HR Medicament Marker-Quintile 2-4 ([1]; Quintiles 1 to 4 are pooled, CT-proAVP 0.69-23.5 pmol/L): 0.8*
HR Medicament (overall patient group) ([1]; biomarker CT-proAVP): 1.3
HR Medicament (overall patient group) ([1]; biomarker CT-proET-1): 1.4
HR Medicament (overall patient group) ([1]; biomarker MR-proADM): 1
HR Medicament (overall patient group) ([1]; biomarker MR-proANP): 1.3
deaths with medication ([1]; FIG. 12A, marker MR-proANP, overall population, n=209 with medication): 20
deaths with medication ([1]; FIG. 12B, 1st MR-proANP quintile (22.3-69.5 pmol/L), n=51 with medication): 0
deaths with medication ([1]; FIG. 12C, 2nd to 4th MR-proANP quintiles (69.5-250 pmol/L), n=124 with medication): 6
deaths with medication ([1]; FIG. 12D, 5th MR-proANP quintile (250-1540 pmol/L), n=34 with medication): 14
HR Medicament in Marker-Quantile 1 ([2]; CT-proAVP 0.31-4.6 pmol/L): >100
HR Medicament in Marker-Quantile 2-4 ([2]; CT-proAVP 4.6-42.1 pmol/L): 0.4
HR Medicament in Marker-Quantile 5 ([2]; CT-proAVP 42.1-1040 pmol/L): 0.3
HR Medicament in Marker-Quantile 1 ([2]; MR-proADM 0.035-0.47 nmol/L): >100
HR Medicament in Marker-Quantile 2-4 ([2]; MR-proADM 0.47-1.18 nmol/L): 0.5
HR Medicament in Marker-Quantile 5 ([2]; MR-proADM 1.18-6.75 nmol/L): 0.3
HR Medicament in Marker-Quantile 1 ([2]; MR-proANP 14.5-59.6 pmol/L): >100
HR Medicament in Marker-Quantile 2-4 ([2]; MR-proANP 59.6-283 pmol/L): 0.4
HR Medicament in Marker-Quantile 5 ([2]; MR-proANP 283-1650 pmol/L): 0.4
HR Medicament in Marker-Quantile 1 ([2]; NT-proBNP 0.12-184 pg/mL): >100
HR Medicament in Marker-Quantile 2-4 ([2]; NT-proBNP 184-2700 pg/mL): 0.3
HR Medicament in Marker-Quantile 5 ([2]; NT-proBNP 2700-34100 pg/mL): 0.5
HR Medicament (overall patient group) ([2]; biomarker CT-proAVP): 0.3
HR Medicament (overall patient group) ([2]; biomarker MR-proADM): 0.3
HR Medicament (overall patient group) ([2]; biomarker MR-proANP): 0.3
HR Medicament (overall patient group) ([2]; biomarker NT-proBNP): 0.3

O=C(NCCO[N+](=O)[O-])c1cccnc1 [Nicorandil]
HR Medicament in Marker-Quantile 1 ([2]; NT-proBNP 0.3-204 pg/mL): 4.8
HR Medicament in Marker-Quantile 2-4 ([2]; NT-proBNP 204-3160 pg/mL): <0.1
HR Medicament in Marker-Quantile 5 ([2]; NT-proBNP 3160-11800 pg/mL): 0.5
HR Medicament (overall patient group) ([2]; biomarker NT-proBNP): 0.5
HR Medicament in Marker-Quantile 1 ([3]; CT-proET-1 4.6-56.6 pmol/L): 7.1
HR Medicament in Marker-Quantile 2-4 ([3]; CT-proET-1 56.6-118 pmol/L): 1.2
HR Medicament in Marker-Quantile 5 ([3]; CT-proET-1 118-671 pmol/L): 0.7
HR Medicament (overall patient group) ([3]; biomarker CT-proET-1): 1.2

O=[N+]([O-])O [Nitrate]
deaths with medication ([2]; FIG. 16A, marker CT-proAVP, overall population, n=494 with medication): 23
deaths with medication ([2]; FIG. 16B, 1st CT-proAVP quintile (0.31-4.6 pmol/L), n=69 with medication): 2
deaths with medication ([2]; FIG. 16C, 2nd to 4th CT-proAVP quintiles (4.6-42.1 pmol/L), n=318 with medication): 11
deaths with medication ([2]; FIG. 16D, 5th CT-proAVP quintile (42.1-1040 pmol/L), n=107 with medication): 10
HR Medicament in Marker-Quantile 1 ([2]; CT-ET-1 3.7-65.4 pmol/L): 1
HR Medicament in Marker-Quantile 2-4 ([2]; CT-ET-1 65.4-136 pmol/L): 1
HR Medicament in Marker-Quantile 5 ([2]; CT-ET-1 136-468 pmol/L): 0.3
HR Medicament in Marker-Quantile 1 ([2]; CT-proAVP 0.31-4.6 pmol/L): 4.8
HR Medicament in Marker-Quantile 2-4 ([2]; CT-proAVP 4.6-42.1 pmol/L): 0.7
HR Medicament in Marker-Quantile 5 ([2]; CT-proAVP 42.1-1040 pmol/L): 0.3
HR Medicament in Marker-Quantile 1 ([2]; MR-proANP 14.5-59.6 pmol/L): >100
HR Medicament in Marker-Quantile 2-4 ([2]; MR-proANP 59.6-283 pmol/L): 0.9
HR Medicament in Marker-Quantile 5 ([2]; MR-proANP 283-1650 pmol/L): 0.3
HR Medicament in Marker-Quantile 1 ([2]; NT-proBNP 0.12-184 pg/mL): 1.9
HR Medicament in Marker-Quantile 2-4 ([2]; NT-proBNP 184-2700 pg/mL): 0.6
HR Medicament in Marker-Quantile 5 ([2]; NT-proBNP 2700-34100 pg/mL): 0.5
HR Medicament (overall patient group) ([2]; biomarker CT-ET-1): 0.6
HR Medicament (overall patient group) ([2]; biomarker CT-proAVP): 0.5
HR Medicament (overall patient group) ([2]; biomarker MR-proANP): 0.5
HR Medicament (overall patient group) ([2]; biomarker NT-proBNP): 0.7
HR Medicament in Marker-Quantile 1 ([3]; CT-proAVP 0.3-3.6 pmol/L): 2.8
HR Medicament in Marker-Quantile 2-4 ([3]; CT-proAVP 3.6-18.7 pmol/L): 1.2
HR Medicament in Marker-Quantile 5 ([3]; CT-proAVP 18.7-441 pmol/L): 0.6
HR Medicament in Marker-Quantile 1 ([3]; CT-proET-1 4.6-56.6 pmol/L): 2.4
HR Medicament in Marker-Quantile 2-4 ([3]; CT-proET-1 56.6-118 pmol/L): 0.9
HR Medicament in Marker-Quantile 5 ([3]; CT-proET-1 118-671 pmol/L): 0.9
HR Medicament in Marker-Quantile 1 ([3]; MR-proADM 0.09-0.53 nmol/L): 2.4
HR Medicament in Marker-Quantile 2-4 ([3]; MR-proADM 0.53-1.16 nmol/L): 0.9
HR Medicament in Marker-Quantile 5 ([3]; MR-proADM 1.16-6.95 nmol/L): 1
HR Medicament in Marker-Quantile 1 ([3]; MR-proANP 4.9-65 pmol/L): 3.8
HR Medicament in Marker-Quantile 2-4 ([3]; MR-proANP 65-264 pmol/L): 1
HR Medicament in Marker-Quantile 5 ([3]; MR-proANP 264-1630 pmol/L): 0.8
HR Medicament in Marker-Quantile 1 ([3]; NT-proBNP 0.12-184 pg/mL): 2.4
HR Medicament in Marker-Quantile 2-4 ([3]; NT-proBNP 184-2700 pg/mL): 0.8
HR Medicament in Marker-Quantile 5 ([3]; NT-proBNP 2700-34100 pg/mL): 0.9
HR Medicament (overall patient group) ([3]; biomarker CT-proAVP): 1.1
HR Medicament (overall patient group) ([3]; biomarker CT-proET-1): 1.1
HR Medicament (overall patient group) ([3]; biomarker MR-proADM): 1.1
HR Medicament (overall patient group) ([3]; biomarker MR-proANP): 1.1
HR Medicament (overall patient group) ([3]; biomarker NT-proBNP): 1

COC(=O)[C@H](c1ccccc1Cl)N1CCc2sccc2C1 [Plavix]
effect of administration at high (higher) levels of vasoactive hormones [1]: positive effect
effect of administration at low (lower) levels of vasoactive hormones [1]: unfavourable effect
HR Medicament Marker-Quintile 1 ([1]; MR-proADM 0.05-0.47 nmol/L): 1.8
HR Medicament Marker-Quintile 2-4 ([1]; MR-proADM 0.47-0.91 nmol/L): 0.2
HR Medicament Marker-Quintile 5 ([1]; MR-proADM 0.91-5.49 nmol/L): 0.1
HR Medicament (overall patient group) ([1]; biomarker MR-proADM): 0.3

COc1ccccc1OCCNCC(O)COc1cccc2[nH]c3ccccc3c12 (stereo not drawn) [carvedilol]
effect on mortality and heart failure [4]: reduced mortality and heart failure

CCOC(=O)[C@H](CCc1ccccc1)N[C@@H](C)C(=O)N1CCC[C@H]1C(=O)O [elanapril]
effect on mortality [5]: beneficial effect
